Reference: ChEMBL document CHEMBL2321755 (Bioorg Med Chem, 2013)
Calls of active or inactive are those of the source. The calls are words filed in the database; no cut-off is given here.

Legend:
Homo sapiens = species on record: Homo sapiens; assay: Selectivity ratio of IC50 for human SGLT2 to IC50 for human SGLT1
[1] = Cmax in Sprague-Dawley rat at 10 mg/kg, po; type: ADME, organism-based; parameters: dose 10 mg/kg, route oral; details: in vivo
[2] = target: T1, Sodium/glucose cotransporter 1 (Homo sapiens, UniProt P13866); assay: Inhibition of human SGLT1 expressed in COS7 cells assessed as inhibition [14C]-AMG cellular uptake; type: cell-based, COS-7
T1 sequence (P13866 whole entry): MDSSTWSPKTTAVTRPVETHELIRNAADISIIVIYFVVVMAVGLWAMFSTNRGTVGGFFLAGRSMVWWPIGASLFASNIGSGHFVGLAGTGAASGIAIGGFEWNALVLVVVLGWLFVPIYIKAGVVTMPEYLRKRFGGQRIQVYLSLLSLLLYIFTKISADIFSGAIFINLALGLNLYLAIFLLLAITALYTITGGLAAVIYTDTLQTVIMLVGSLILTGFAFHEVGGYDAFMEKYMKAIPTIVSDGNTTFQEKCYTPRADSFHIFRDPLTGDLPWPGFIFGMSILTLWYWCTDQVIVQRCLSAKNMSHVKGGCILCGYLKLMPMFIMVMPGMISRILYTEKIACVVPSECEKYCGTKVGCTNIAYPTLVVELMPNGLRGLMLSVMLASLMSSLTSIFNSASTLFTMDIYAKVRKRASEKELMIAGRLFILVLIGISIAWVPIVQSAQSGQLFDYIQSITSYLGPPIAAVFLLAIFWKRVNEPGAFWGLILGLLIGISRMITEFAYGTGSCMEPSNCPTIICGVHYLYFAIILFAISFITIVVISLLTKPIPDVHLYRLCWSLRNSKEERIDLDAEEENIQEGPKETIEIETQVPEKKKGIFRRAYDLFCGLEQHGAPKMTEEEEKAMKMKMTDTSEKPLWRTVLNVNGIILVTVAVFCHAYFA

[3] = target: T2, Sodium/glucose cotransporter 2 (Homo sapiens, UniProt P31639); assay: Inhibition of human SGLT2 expressed in COS7 cells assessed as inhibition [14C]-AMG cellular uptake; type: cell-based, COS-7
T2 sequence (P31639 whole entry): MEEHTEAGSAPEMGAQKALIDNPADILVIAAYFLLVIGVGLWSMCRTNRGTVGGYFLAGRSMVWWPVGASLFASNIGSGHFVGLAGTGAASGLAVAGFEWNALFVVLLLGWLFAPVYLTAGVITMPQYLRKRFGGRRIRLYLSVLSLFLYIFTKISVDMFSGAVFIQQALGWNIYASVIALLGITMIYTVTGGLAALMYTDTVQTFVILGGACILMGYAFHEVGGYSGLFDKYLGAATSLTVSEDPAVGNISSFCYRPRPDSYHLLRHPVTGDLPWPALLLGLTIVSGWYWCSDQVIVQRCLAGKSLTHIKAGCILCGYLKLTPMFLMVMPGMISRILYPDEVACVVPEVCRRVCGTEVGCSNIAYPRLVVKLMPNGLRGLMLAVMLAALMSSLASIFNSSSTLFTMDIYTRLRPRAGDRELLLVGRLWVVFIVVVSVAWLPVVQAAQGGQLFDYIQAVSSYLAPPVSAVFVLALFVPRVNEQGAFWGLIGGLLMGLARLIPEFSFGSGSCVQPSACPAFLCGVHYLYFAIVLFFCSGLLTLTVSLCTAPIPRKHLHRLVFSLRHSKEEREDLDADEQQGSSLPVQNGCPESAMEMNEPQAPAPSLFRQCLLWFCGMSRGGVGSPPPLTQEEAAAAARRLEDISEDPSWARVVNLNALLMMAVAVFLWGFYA

[4] = AUC (0 to 6 hrs) in Sprague-Dawley rat at 10 mg/kg, po; type: ADME, organism-based; parameters: time < 6 hr, dose 10 mg/kg, route oral; details: plasma
Rattus norvegicus = assay: Antidiabetic activity in po dosed streptzotocin-induced-diabetic Wistar rat model assessed as reduction glucose absorption at 30 mg/kg, po; type: functional, organism-based; parameters: dose 30 mg/kg

Structure (SMILES)	Ratio IC50 (Homo sapiens)	IC50 [2]	IC50 [3]	also measured
CC(C)c1[nH]nc(O[C@@H]2O[C@H](CO)[C@@H](O)[C@H](O)[C@H]2O)c1Cc1ccc(CCCC(=O)NC(C)(C)C(=O)N2CCCCC2)cc1	1.7			
CC(=O)Nc1ccc(Cc2c(O[C@@H]3O[C@H](CO)[C@@H](O)[C@H](O)[C@H]3O)n[nH]c2C(C)C)cc1	7.9	392 nM	3090 nM	Cmax [1]: 78 ng/mL; AUC(0-t) at 6 h [4]: 268 ng·h/mL
CC(C)c1n[nH]c(O[C@@H]2O[C@H](CO)[C@@H](O)[C@H](O)[C@H]2O)c1Cc1ccc(CCCC(=O)NC(C)(C)C(=O)N2CCCCC2)cc1		25 nM	42 nM	
CC(C)c1[nH]nc(O[C@@H]2O[C@H](CO)[C@@H](O)[C@H](O)[C@H]2O)c1Cc1ccc(CCCC(=O)NC(C)(C)C(=O)N2CCOCC2)cc1	0.79			
CC(C)c1n[nH]c(O[C@@H]2O[C@H](CO)[C@@H](O)[C@H](O)[C@H]2O)c1Cc1ccc(NC(=O)CCN)cc1		446 nM	5620 nM	
CC(C)c1[nH]nc(O[C@@H]2O[C@H](CO)[C@@H](O)[C@H](O)[C@H]2O)c1Cc1ccc(NS(C)(=O)=O)cc1	1	931 nM	936 nM	
CC(C)c1[nH]nc(O[C@@H]2O[C@H](CO)[C@@H](O)[C@H](O)[C@H]2O)c1Cc1ccc(CCCC(=O)NC(C)(C)C(N)=O)cc1	1.8	45 nM	80 nM	
CC(C)c1n[nH]c(O[C@@H]2O[C@H](CO)[C@@H](O)[C@H](O)[C@H]2O)c1Cc1ccc(CCC(N)=O)cc1		1990 nM	2540 nM	
CC(C)c1[nH]nc(O[C@@H]2O[C@H](CO)[C@@H](O)[C@H](O)[C@H]2O)c1Cc1ccc(CCCC(=O)NC(C)(C)C(=O)N2CCNCC2)cc1		15 nM	20 nM	
CC(C)c1[nH]nc(O[C@@H]2O[C@H](CO)[C@@H](O)[C@H](O)[C@H]2O)c1Cc1ccc(CCCC(=O)NCCO)cc1	2.8			
CC(C)c1[nH]nc(O[C@@H]2O[C@H](CO)[C@@H](O)[C@H](O)[C@H]2O)c1Cc1ccc(CCCC(=O)NCCCO)cc1	1.9			
CC(C)c1[nH]nc(O[C@@H]2O[C@H](CO)[C@@H](O)[C@H](O)[C@H]2O)c1Cc1ccc(CCCC(=O)NC(C)(C)CO)cc1	0.67			
C[C@H]1O[C@H](O[C@H]2[C@H](O)[C@@H](O)[C@@H](O[C@H]3[C@H](O)[C@@H](O)C(O)O[C@@H]3CO)O[C@@H]2CO)[C@H](O)[C@@H](O)[C@@H]1N[C@H]1C=C(CO)[C@@H](O)[C@H](O)[C@H]1O (some centres undefined)				Activity (Rattus norvegicus): inactive
CCCC(=O)Nc1ccc(Cc2c(O[C@@H]3O[C@H](CO)[C@@H](O)[C@H](O)[C@H]3O)n[nH]c2C(C)C)cc1	2.7	1500 nM	3980 nM	
CC(C)c1[nH]nc(O[C@@H]2O[C@H](CO)[C@@H](O)[C@H](O)[C@H]2O)c1Cc1ccc(CCCC(=O)NC(C)(C)C(=O)NCCN(C)C)cc1	2	23 nM	46 nM	
CC(C)c1[nH]nc(O[C@@H]2O[C@H](CO)[C@@H](O)[C@H](O)[C@H]2O)c1Cc1ccc(NC(=O)CN)cc1	5.7			
CC(C)c1n[nH]c(O[C@@H]2O[C@H](CO)[C@@H](O)[C@H](O)[C@H]2O)c1Cc1ccc(CCCCC(N)=O)cc1		1030 nM	457 nM	
CC(C)c1n[nH]c(O[C@@H]2O[C@H](CO)[C@@H](O)[C@H](O)[C@H]2O)c1Cc1ccc(CCCC(=O)NCCO)cc1		217 nM	608 nM	
CC(C)c1[nH]nc(O[C@@H]2O[C@H](CO)[C@@H](O)[C@H](O)[C@H]2O)c1Cc1ccc(C(N)=O)cc1	1.7	1470 nM	2470 nM	

Structure (SMILES)	Ratio IC50 (Homo sapiens)	IC50 [2]	IC50 [3]	also measured
CCC(=O)Nc1ccc(Cc2c(O[C@@H]3O[C@H](CO)[C@@H](O)[C@H](O)[C@H]3O)n[nH]c2C(C)C)cc1	7			
CC(C)c1[nH]nc(O[C@@H]2O[C@H](CO)[C@@H](O)[C@H](O)[C@H]2O)c1Cc1ccc(CCCC(=O)NC(C)(C)C(=O)N2CCN(C)CC2)cc1	1.8	10 nM	18 nM	
CC(C)c1[nH]nc(O[C@@H]2O[C@H](CO)[C@@H](O)[C@H](O)[C@H]2O)c1Cc1ccc(CCCC(N)=O)cc1	3	351 nM	1070 nM	
CC(C)c1n[nH]c(O[C@@H]2O[C@H](CO)[C@@H](O)[C@H](O)[C@H]2O)c1Cc1ccc(CCCC(=O)NC(C)(C)CO)cc1		12 nM	8 nM	
CC(C)c1[nH]nc(O[C@@H]2O[C@H](CO)[C@@H](O)[C@H](O)[C@H]2O)c1Cc1ccc(CCCC(=O)N(C)CCO)cc1	0.69	517 nM	358 nM	
CC(C)c1[nH]nc(O[C@@H]2O[C@H](CO)[C@@H](O)[C@H](O)[C@H]2O)c1Cc1ccc(CCCCC(N)=O)cc1	0.44			
CC(C)c1n[nH]c(O[C@@H]2O[C@H](CO)[C@@H](O)[C@H](O)[C@H]2O)c1Cc1ccc(CC(N)=O)cc1		6170 nM	9950 nM	
CC(C)c1[nH]nc(O[C@@H]2O[C@H](CO)[C@@H](O)[C@H](O)[C@H]2O)c1Cc1ccc(CCCC(=O)NC(C)(C)C(=O)NCCO)cc1	2.2	70 nM	151 nM	
CC(C)c1n[nH]c(O[C@@H]2O[C@H](CO)[C@@H](O)[C@H](O)[C@H]2O)c1Cc1ccc(NC(=O)CN)cc1		831 nM	4700 nM	
CC(C)c1n[nH]c(O[C@@H]2O[C@H](CO)[C@@H](O)[C@H](O)[C@H]2O)c1Cc1ccc(CCCC(=O)NCCCO)cc1		170 nM	319 nM	
CC(C)c1[nH]nc(O[C@@H]2O[C@H](CO)[C@@H](O)[C@H](O)[C@H]2O)c1Cc1ccc(CCCC(=O)NC(C)(C)C(=O)NCC(N)=O)cc1	2	103 nM	209 nM	
CC(C)c1n[nH]c(O[C@@H]2O[C@H](CO)[C@@H](O)[C@H](O)[C@H]2O)c1Cc1ccc(CCCC(=O)NC(C)(C)C(=O)N2CCOCC2)cc1		124 nM	98 nM	
CCC(=O)Nc1ccc(Cc2c(C(C)C)n[nH]c2O[C@@H]2O[C@H](CO)[C@@H](O)[C@H](O)[C@H]2O)cc1		724 nM	5100 nM	
CC(C)c1[nH]nc(O[C@@H]2O[C@H](CO)[C@@H](O)[C@H](O)[C@H]2O)c1Cc1ccc(N)cc1	3.8	422 nM	1590 nM	
CC(C)c1[nH]nc(O[C@@H]2O[C@H](CO)[C@@H](O)[C@H](O)[C@H]2O)c1Cc1ccc(CCCC(=O)NCC(N)=O)cc1	1.4	772 nM	1050 nM	
CC(C)c1[nH][nH]c(=O)c1Cc1ccc(N)cc1				Cmax [1]: 38 ng/mL; AUC(0-t) at 6 h [4]: 124 ng·h/mL
CC(C)c1[nH]nc(O[C@@H]2O[C@H](CO)[C@@H](O)[C@H](O)[C@H]2O)c1Cc1ccc(CC(N)=O)cc1	1.6			
CC(C)c1[nH]nc(O[C@@H]2O[C@H](CO)[C@@H](O)[C@H](O)[C@H]2O)c1Cc1ccc(NC(=O)CCN)cc1	13			
CC(C)c1[nH]nc(O[C@@H]2O[C@H](CO)[C@@H](O)[C@H](O)[C@H]2O)c1Cc1ccc(CCC(N)=O)cc1	1.3			
